What is called IC50 is the concentration at which inhibition is half-maximal.

For 29 compounds, IC50 results are on record in US8071810B2, “C5a receptor antagonists” (Jerini AG, priority 2005, dated 2011).

The structures appear in SMILES notation.

One assay has as its target T1, human C5a receptor (CD88) (Homo sapiens, UniProt P21730).
T1 construct: expressed in transfected cells; host or cells: rat basophilic leukemia (RBL) cells, stably transfected
T1 sequence (P21730 1-350): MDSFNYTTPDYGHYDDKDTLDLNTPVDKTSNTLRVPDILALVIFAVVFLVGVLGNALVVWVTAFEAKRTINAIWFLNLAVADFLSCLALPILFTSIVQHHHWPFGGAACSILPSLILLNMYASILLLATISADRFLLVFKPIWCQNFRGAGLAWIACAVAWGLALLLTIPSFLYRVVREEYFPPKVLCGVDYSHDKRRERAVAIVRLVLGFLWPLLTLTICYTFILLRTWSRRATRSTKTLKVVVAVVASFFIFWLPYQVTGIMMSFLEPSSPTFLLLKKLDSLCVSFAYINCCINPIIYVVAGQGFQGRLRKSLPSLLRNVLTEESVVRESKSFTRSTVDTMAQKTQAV
The experiment in a line: C5a induced enzyme (glucosaminidase) release assay in RBL cells expressing the human C5a receptor (Example 28). To be noted: RBL cells with human C5aR; read-out: IC50 for the inhibition of C5a induced enzyme release. Format: cell-based. Put shortly: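 Rat basophilic leukemia (RBL) cells expressing human C5a receptor, at 2×10^6 cells/ml, primed with cytochalasin B, then incubated with test compound 10 min at 37 °C.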
On to `CCc1cccc(CC)c1NC(=O)N(Cc1ccc(OC)cc1)c1ccc(C(C)C)cc1` [compound 26, 3-(2,6-diethyl-phenyl)-1-(4-isopropyl-phenyl)-1-(4-methoxy-benzyl)-urea], for which the 50% inhibitory concentration (IC50) turned out to be 524 nM.

`CCc1c(N)cc(Cl)c(CC)c1NC(=O)N(Cc1ccc(Cl)cc1)c1ccc(NC)cc1`: the IC50 came to 19 nM.

`CCc1c(N)cc(Cl)c(CC)c1NC(=O)N(c1ccc(C(C)C)cc1)[C@@H](C)c1ccc(F)cc1` [compound 81, (S)-3-(3-amino-5-chloro-2,6-diethyl-phenyl)-1-[1-(4-fluor-phenyl)-ethyl]-1-(4-isopropyl-phenyl)-urea]: the IC50 was 38 nM.

Still in this assay, the particulars now being: inhibition of C5a induced enzyme release, RBL cells with human C5aR; read-out: Activity-range (antagonistic activity, IC50 enzyme release).
In the case of `CCc1c(N)cc(Cl)c(CC)c1NC(=O)N(c1ccc(OC)cc1)[C@@H](C)c1ccc(Cl)cc1` [compound 92, (S)-3-(3-amino-5-chloro-2,6-diethyl-phenyl)-1-[1-(4-chloro-phenyl)-ethyl]-1-(4-methoxy-phenyl)-urea], the IC50 lay within 60 to 200 nM.

Turning to `CCc1c(N)cc(Cl)c(CC)c1NC(=O)N(Cc1cnc(C)cn1)c1ccc(C(C)C)cc1` [compound 75, 3-(3-amino-5-chloro-2,6-diethyl-phenyl)-1-(4-isopropyl-phenyl)-1-(5-methyl-pyrazin-2-ylmethyl)-urea], the IC50 fell in the range of 60 to 200 nM.

With `CCc1c(Cl)cc(NCc2ccco2)c(CC)c1NC(=O)N(Cc1ccc(OC)cc1)c1ccc(C(C)C)cc1` [compound 36, 3-{3-Chloro-2,6-diethyl-5-[(furan-2-ylmethyl)-amino]-phenyl}-1-(4-isopropyl-phenyl)-1-(4-methoxy-benzyl)-urea], the IC50 is 200 to 5000 nM.

On to `CCc1ccc(N)c(CC)c1NC(=O)N(Cc1ccc(OC)nc1)c1ccc(C(C)C)cc1` [compound 48, 3-(3-amino-2,6-diethyl-phenyl)-1-(4-isopropyl-phenyl)-1-(6-methoxy-pyridin-3-ylmethyl)-urea], for which the IC50 lay in the range of 200 to 5000 nM.

In the case of `CCc1c(N)cc(Cl)c(CC)c1NC(=O)N(Cc1ccc(OC)cc1)c1ccc2c(c1)CCC2` [compound 44, 3-(3-amino-5-chloro-2,6-diethyl-phenyl)-1-indane-5-yl-1-(4-methoxy-benzyl)-urea], the half-inhibitory concentration (IC50) was 200 to 5000 nM.

As for `CCc1ccc(N(Cc2ccc(C#N)cc2)C(=O)Nc2c(CC)c(N)cc(Cl)c2CC)cc1` [compound 113, 3-(3-amino-5-chloro-2,6-diethyl-phenyl)-1-(4-cyano-benzyl)-1-(4-ethyl-phenyl)-urea], the IC50 lay within 200 to 5000 nM.

For the compound `CCc1c(N)cc(Cl)c(CC)c1NC(=O)N(Cc1ccccc1)c1ccc(C(C)C)cc1` [compound 43, 3-(3-amino-5-chloro-2,6-diethyl-phenyl)-1-benzyl-1-(4-isopropyl-phenyl)-urea], the IC50 was 200 to 5000 nM.

With `CCc1c(Cl)cc(NCC(=O)OC)c(CC)c1NC(=O)N(Cc1ccc(OC)cc1)c1ccc(C(C)C)cc1` [compound 55, {5-chloro-2,4-diethyl-3-[3-(4-isopropyl-phenyl)-3-(4-methoxy-benzyl)-ureido]-phenylamino} acetic acid methyl-ester], the IC50 lay within 200 to 5000 nM.

For the compound `CCc1c(Cl)cc(NCc2nccn2C)c(CC)c1NC(=O)N(Cc1ccc(OC)cc1)c1ccc(C(C)C)cc1` [compound 38, 3-{3-chloro-2,6-diethyl-5-[(1-methyl-1H-imidazol-2-ylmethyl)-amino]-phenyl}-1-(4-isopropyl-phenyl)-1-(4-methoxy-benzyl)-urea], the IC50 lay in the range of 200 to 5000 nM.

On to `CCc1c(N)cc(Cl)c(CC)c1NC(=O)N(c1ccc(C(C)C)cc1)[C@H](C)c1ccc(C)cc1` [compound 57, (R)-3-(3-Amino-5-chloro-2,6-diethyl-phenyl)-1-(4-isopropyl-phenyl)-1-(1-p-tolyl-ethyl)-urea], for which the IC50 fell in the range of 200 to 5000 nM.

Regarding `CCc1ccc(N(Cc2ccc3c(c2)ncn3C)C(=O)Nc2c(CC)c(N)cc(Cl)c2CC)cc1` [compound 118, 3-(3-amino-5-chloro-2,6-diethyl-phenyl)-1-(4-ethyl-phenyl)-1-(1-methyl-1H-benzoimidazol-5-ylmethyl)-urea], the IC50 is 200 to 5000 nM.

In the case of `CCc1ccc(N)c(CC)c1NC(=O)N(c1ccc(C(C)C)cc1)[C@H](C)c1ccc(C)cc1` [compound 68, (R)-3-(3-amino-2,6-diethyl-phenyl)-1-(4-isopropyl-phenyl)-1-(1-p-tolyl-ethyl)-urea], the IC50 is 200 to 5000 nM.

Regarding `CCc1ccc(N(Cc2ccc(-n3cccn3)cc2)C(=O)Nc2c(CC)c(N)cc(Cl)c2CC)cc1` [compound 110, 3-(3-amino-5-chloro-2,6-diethyl-phenyl)-1-(4-ethyl-phenyl)-1-(4-pyrazol-1-yl-benzyl)-urea], the IC50 was 200 to 5000 nM.

As to `CCc1c(N)cc(Cl)c(CC)c1NC(=O)N(c1ccc(SC)cc1)[C@@H](C)c1ccc(Cl)cc1` [compound 83, (S)-3-(3-amino-5-chloro-2,6-diethyl-phenyl)-1-[1-(4-chloro-phenyl)-ethyl]-1-(4-methylsulfanyl-phenyl)-urea], the IC50 lay within 60 to 200 nM.

With `CCc1c(N)cc(Cl)c(CC)c1NC(=O)N(Cc1ccc(Cl)cc1)c1cccc2ccccc12` [compound 108, 3-(3-amino-5-chloro-2,6-diethyl-phenyl)-1-(4-chloro-benzyl)-1-naphthaline-1-yl-urea], the IC50 fell in the range of 200 to 5000 nM.

`CCc1c(N)cc(Cl)c(CC)c1NC(=O)N(c1ccc2[nH]ccc2c1)[C@@H](C)c1ccc(Cl)cc1` [compound 141, (S)-3-(3-amino-5-chloro-2,6-diethyl-phenyl)-1-[1-(4-chloro-phenyl)-ethyl]-1-(1H-indol-5-yl)-urea]: the half-inhibitory concentration (IC50) was less than 60 nM.

Consider `CCc1c(N)cc(Cl)c(CC)c1NC(=O)N(Cc1ccc(OC)cc1F)c1ccc(C(C)C)cc1` [compound 58, 3-(3-amino-5-chloro-2,6-diethyl-phenyl)-1-(2-fluoro-4-methoxy-benzyl)-1-(4-isopropyl-phenyl)-urea], for which the IC50 was 200 to 5000 nM.

As for `CCc1c(N)cc(Cl)c(CC)c1NC(=O)N(Cc1ccc(C)nc1)c1ccc(OC)cc1F` [compound 124, 3-(3-amino-5-chloro-2,6-diethyl-phenyl)-1-(2-fluoro-4-methoxy-phenyl)-1-(6-methyl-pyridin-3-ylmethyl)-urea], the IC50 was in the range of 200 to 5000 nM.

Turning to `CCc1c(N)cc(Cl)c(CC)c1NC(=O)N(c1ccc(C(C)C)cc1)[C@@H](C)c1ccc(Cl)cc1` [compound 78, (S)-3-(3-amino-5-chloro-2,6-diethyl-phenyl)-1-[1-(4-chlor-phenyl)-ethyl]-1-(4-isopropyl-phenyl)-urea], the IC50 was less than 60 nM.

Consider `CCc1ccc(N)c(CC)c1NC(=O)N(Cc1ccccc1OC)c1ccc(C(C)C)cc1` [compound 63, 3-(3-amino-2,6-diethyl-phenyl)-1-(4-isopropyl-phenyl)-1-(2-methoxy-benzyl)-urea], for which the IC50 was in the range of 200 to 5000 nM.

`CCc1c(N)cc(Cl)c(CC)c1NC(=O)N(Cc1ccc(OC(F)(F)F)cc1)c1ccc(C(C)C)cc1` [compound 33, 3-(3-amino-5-chloro-2,6-diethyl-phenyl)-1-(4-isopropyl-phenyl)-1-(4-trifluoromethoxy-benzyl)-urea]: the IC50 lay within 200 to 5000 nM.

`CCc1ccc(N(Cc2ccc(C)cc2)C(=O)Nc2c(CC)ccc(N)c2CC)cc1` [compound 54, 3-(3-amino-2,6-diethyl-phenyl)-1-(4-ethyl-phenyl)-1-(4-methyl-benzyl)-urea]: the IC50 fell in the range of 200 to 5000 nM.

On to `CCc1ccc(N)c(CC)c1NC(=O)N(Cc1ccc(OC)cc1)c1ccc(C(C)C)cc1` [compound 28, 3-(3-amino-2,6-diethyl-phenyl)-1-(4-isopropyl-phenyl)-1-(4-methoxy-benzyl)-urea], for which the 50% inhibitory concentration (IC50) was 200 to 5000 nM.

As to `CCc1ccc(N(Cc2ccc(OC)cc2)C(=O)Nc2c(CC)c(N)cc(Cl)c2CC)cc1` [compound 32, 3-(3-amino-5-chloro-2,6-diethyl-phenyl)-1-(4-ethyl-phenyl)-1-(4-methoxy-benzyl)-urea], the concentration for half-maximal inhibition (IC50) lay within 200 to 5000 nM.

For the compound `CCc1c(Cl)cc(NCC(=O)OC(C)(C)C)c(CC)c1NC(=O)N(Cc1ccc(OC)cc1)c1ccc(C(C)C)cc1` [compound 45, {5-chloro-2,4-diethyl-3-[3-(4-isopropyl-phenyl)-3-(4-methoxy-benzyl)-ureido]-phenylamino} acetic acid tert-butyl ester], the IC50 is 60 to 200 nM.

In the case of `CCc1c(N)cc(Cl)c(CC)c1NC(=O)N(Cc1ccc(C)nc1)c1ccc(CC(F)(F)F)cc1` [compound 126, 3-(3-amino-5-chloro-2,6-diethyl-phenyl)-1-(6-methyl-pyridin-3-ylmethyl)-1-[4-(2,2,2-trifluoro-ethyl)-phenyl]-urea], the IC50 was 60 to 200 nM.
